Experiment [1] deals with ubiquinone binding site of complex I (IQ). Nature of the experiment: High-throughput screen: ROS production from ubiquinone binding site of complex I (IQ), isolated skeletal muscle mitochondria. In kind it is biochemical, rat. To be noted: for IQ: percent change in ROS from DMSO controls.
Experiment [2] has as its target T1, outer ubiquinone binding site of complex III (IIIQO) (Rattus norvegicus, UniProt P00159+P20788).
T1 construct: freshly isolated muscle mitochondria were assayed; from tissue; host or cells: rat skeletal muscle mitochondria (Wistar, Harlan Laboratories)
Put plainly: High-throughput screen: ROS production from outer ubiquinone binding site of complex III (IIIQO). In kind it is biochemical.

The target in experiment [3] is T2, flavin binding site of complex I (IF) (Rattus norvegicus, UniProt Q5XIH3).
T2 construct: freshly isolated muscle mitochondria were assayed; from tissue; host or cells: rat skeletal muscle mitochondria (Wistar, Harlan Laboratories)
Put plainly: High-throughput screen: ROS production from flavin binding site of complex I (IF). In kind it is biochemical.

The target of experiment [4] is T3, succinate dehydrogenase/complex II (SDH) (Rattus norvegicus, UniProt P21913+Q641Z9+Q6PCT8+Q920L2).
T3 construct: freshly isolated muscle mitochondria were assayed; from tissue; host or cells: rat skeletal muscle mitochondria (Wistar, Harlan Laboratories)
Put plainly: High-throughput screen: ROS production from succinate dehydrogenase/complex II (SDH). To be noted: percent change in ROS from DMSO controls. In kind it is biochemical.
Description: Skeletal muscle mitochondria were isolated from 5-8 week old female Wistar rats (Harlan Laboratories). Minced muscle was homogenized in buffer containing bacterial protease Type VIII prior to differential centrifugation to separate mitochondria from other tissue components. Unless otherwise stated, freshly isolated muscle mitochondria were assayed in buffer containing 120 mM KCl, 5 mM HEPES, 1 mM EGTA, 0.3% (w/v) bovine serum albumin. Where indicated, CaCl2 was added to yield a final free concentration of 250 nM calcium at pH 7.0 at 37° C.
Just prior to use, plates were brought to room temperature and diluted 300-fold with standard buffer (13.3X=33.3 μM). To monitor the performance of each assay throughout screening and to provide intra-plate normalization reference points, DMSO negative controls and known mitochondrial inhibitor positive controls were included on each Master compound plate.
Total amounts of superoxide and H2O2 production were determined fluorometrically as H2O2, without distinguishing between them, in the presence of exogenous superoxide dismutase (25 units/mL final), horseradish peroxidase (1 unit/mL final), and Amplex UltraRed (25 μM final) as described (Affourtit, C. et al. (2012) Measurement of proton leak and electron leak in isolated mitochondria. Methods Mol. Biol. 810: 165-82). Just prior to use, a bulk 3.3X solution was made in standard buffer and distributed into a 2 mL deep well 96-well transfer plate.
To assess the effects of a compound on ROS production from succinate dehydrogenase/complex II (SDH), Start Solution containing 15 μM palmitoyl carnitine, 2.5 μM antimycin A and 2 μM myxothiazol was distributed into standard 96-well transfer plates. A Biomek FX workstation was programmed to dispense solutions into black 96-well assay plates. Solutions were dispensed to all assay plates in the following order: ROS Detection solution described in Example 3, Mitochondria solution described in Example 1 to a final concentration of 0.3 mg/ml, and Compound dilutions described in Example 2. Duplicate assay plates were made and each was initiated by the addition of 3.3X Start solution containing 15 μM palmitoyl carnitine, 2.5 μM antimycin A and 2 μM myxothiazol. Plates were incubated in the dark at room temperature for 30-40 minutes before acquiring endpoint fluorescence using a Victor 3V plate reader (Perkin Elmer) equipped with 550/590 nm excitation/emission filters.
The fluorescence values in each well were scaled as the percent change from the intra-plate DMSO controls with the appropriate inhibitor positive controls defined as −100%. Following initial scaling, intra-plate normalized values were subjected to Tukey's two-way median polish to remove row and column dependent positional effects (Malo et al., 2006).

Experiment [5] relates to mitochondrial membrane potential (ΔΨm). Nature of the experiment: Membrane potential (ΔΨm) counterscreen with TMRM. To be noted: malate, nigericin.
Description: Skeletal muscle mitochondria were isolated from 5-8 week old female Wistar rats (Harlan Laboratories). Minced muscle was homogenized in buffer containing bacterial protease Type VIII prior to differential centrifugation to separate mitochondria from other tissue components. Unless otherwise stated, freshly isolated muscle mitochondria were assayed in buffer containing 120 mM KCl, 5 mM HEPES, 1 mM EGTA, 0.3% (w/v) bovine serum albumin. Where indicated, CaCl2 was added to yield a final free concentration of 250 nM calcium at pH 7.0 at 37° C. Total and free calcium concentrations were calculated using the Extended MaxChelator program at http://maxchelator.stanford.edu.
Compounds were manually transferred from the Master Compound Plate to two black 96-well assay plates. A bulk solution was prepared containing the following components (final concentrations) and manually dispensed into the two ΔΨm assay plates: the potentiometric dye TMRM (5 μM), mitochondria (0.2 mg/mL), glutamate (5 mM), malate (5 mM), and nigericin (80 ng/mL).
Experiment [6] concerns the target T4, glycerol-3-phosphate dehydrogenase (GPDH) (Rattus norvegicus, UniProt P35571).
T4 construct: The activity of GPDH in intact mitochondria (0.3 mg/mL) was measured; from tissue; host or cells: rat skeletal muscle mitochondria (Wistar, Harlan Laboratories)
T4 sequence (P35571 43-727): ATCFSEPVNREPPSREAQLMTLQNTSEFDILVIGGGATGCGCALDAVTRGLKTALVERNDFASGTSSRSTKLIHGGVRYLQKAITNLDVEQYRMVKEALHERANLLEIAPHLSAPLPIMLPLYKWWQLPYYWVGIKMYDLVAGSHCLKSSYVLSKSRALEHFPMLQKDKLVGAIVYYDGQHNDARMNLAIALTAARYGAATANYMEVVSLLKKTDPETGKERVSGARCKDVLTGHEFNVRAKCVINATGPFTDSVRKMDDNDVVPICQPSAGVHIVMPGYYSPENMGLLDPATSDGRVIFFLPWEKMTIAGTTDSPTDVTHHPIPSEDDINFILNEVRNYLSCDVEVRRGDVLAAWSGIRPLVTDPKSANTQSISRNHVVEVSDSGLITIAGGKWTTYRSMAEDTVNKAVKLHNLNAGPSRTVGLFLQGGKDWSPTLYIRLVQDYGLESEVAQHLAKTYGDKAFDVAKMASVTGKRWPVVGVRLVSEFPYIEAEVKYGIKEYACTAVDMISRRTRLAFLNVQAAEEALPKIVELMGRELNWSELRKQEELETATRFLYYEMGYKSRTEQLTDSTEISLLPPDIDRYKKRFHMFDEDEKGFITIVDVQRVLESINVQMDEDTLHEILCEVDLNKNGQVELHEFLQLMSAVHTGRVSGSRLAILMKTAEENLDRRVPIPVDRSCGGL
Nature of the experiment: High-throughput screen: ROS production from glycerol-3-phosphate dehydrogenase (GPDH). To be noted: for inhibition / GPDH: percent change in ROS from DMSO controls; for inhibition at 2.5 µM: Table 6, 25 mM glycerol phosphate, rotenone, antimycin A, malonate, myxothiazol, compounds 2.5 μM, scaled to IQ positive controls, read-out: % Reduction in ROS Production (GPDH). In kind it is biochemical. Details: inhibition: dose or concentration left out as unconfirmed.

Experiment [7] deals with T5, site IF (Rattus norvegicus, UniProt Q5XIH3).
T5 construct: freshly isolated muscle mitochondria were assayed; from tissue; host or cells: rat skeletal muscle mitochondria (Wistar, Harlan Laboratories)
Put plainly: Retest of IF ROS production (expanded microplate panel). Type of experiment: biochemical. As to the method:
Compounds identified as site-selective hits as well as structural analogs were re-sourced from ChemBridge and dissolved in DMSO as 80 mM stocks. Master Titration Plates were prepared manually by serially diluting 80 mM compound stocks between 0.08 and 80 mM on 96-well microplates. Four compounds were titrated in duplicate on each plate. Additional DMSO controls were interspersed across these plates to serve as local normalization controls during analysis since two-way median polishing was not appropriate. Just prior to use, compounds were diluted 100-fold with standard buffer (10X). The same known inhibitor positive controls were included on each plate as during high-throughput screening. The five core ROS assays and single ΔΨm assay were carried out as in the initial high-throughput screen. In addition, several assays were included to help validate the specificity of the compounds for a given site of production. […] The use of different substrates was designed to reveal compounds that disrupt mitochondrial function in a substrate specific manner. […] Most frequently, these changes involved the use of different substrates to supply electrons from an alternative entry point in the chain. If a site of ROS production is being targeted selectively by a compound, then in many cases the supply of electrons should not influence the effectiveness of this compound at suppressing ROS production. […] The fluorescence values in each well were scaled in relation to the intra-plate DMSO and known inhibitor controls as in the high-throughput screen except that median values for local interspersed DMSO wells (3-6 wells) were used rather than just the 8 DMSO wells in columns 1 and 12. This normalization was applied in place of the two-way median polish used during high-throughput screening to minimize row and column effects. […] At this stage, strong candidates were not necessarily excluded from further testing if subtle off-target effects were observed (e.g. loss of specificity or signs of general inhibition at the highest concentrations). Rather, these candidates were often pursued for more detailed mechanistic studies with the expectation that subsequent structure activity analysis would provide insight into which structurally related compounds would provide the optimal specificity for a given site of production.

[8] abbreviates: Table 4, 5 mM succinate, 4 μM rotenone, 2.5 μM antimycin A, compounds 2.5 μM, percent change from DMSO, read-out: % Reduction in ROS production (IIIQO).
Setting [9] is: Table 7, percent change in ROS from DMSO controls, read-out: IIIQO.
Where [10] appears, read: Table 8, percent change in ROS from DMSO controls.
[11] abbreviates: Table 9, percent change in ROS from DMSO controls, read-out: IIIQo.
Where [12] appears, read: Table 7, percent change in ROS from DMSO controls, read-out: IF.
[13] abbreviates: Table 9, percent change in ROS from DMSO controls.
[14] abbreviates: Table 3, 5 mM glutamate, 5 mM malate, 4 μM rotenone, compounds 2.5 μM, percent change from DMSO, positive control −100%, read-out: % Reduction in ROS production (IF).
Setting [15] is: Table 7, percent change in ROS from DMSO controls.

Where two headings read alike, the source gives them in different places.

T3 sequence (Q920L2 35-656): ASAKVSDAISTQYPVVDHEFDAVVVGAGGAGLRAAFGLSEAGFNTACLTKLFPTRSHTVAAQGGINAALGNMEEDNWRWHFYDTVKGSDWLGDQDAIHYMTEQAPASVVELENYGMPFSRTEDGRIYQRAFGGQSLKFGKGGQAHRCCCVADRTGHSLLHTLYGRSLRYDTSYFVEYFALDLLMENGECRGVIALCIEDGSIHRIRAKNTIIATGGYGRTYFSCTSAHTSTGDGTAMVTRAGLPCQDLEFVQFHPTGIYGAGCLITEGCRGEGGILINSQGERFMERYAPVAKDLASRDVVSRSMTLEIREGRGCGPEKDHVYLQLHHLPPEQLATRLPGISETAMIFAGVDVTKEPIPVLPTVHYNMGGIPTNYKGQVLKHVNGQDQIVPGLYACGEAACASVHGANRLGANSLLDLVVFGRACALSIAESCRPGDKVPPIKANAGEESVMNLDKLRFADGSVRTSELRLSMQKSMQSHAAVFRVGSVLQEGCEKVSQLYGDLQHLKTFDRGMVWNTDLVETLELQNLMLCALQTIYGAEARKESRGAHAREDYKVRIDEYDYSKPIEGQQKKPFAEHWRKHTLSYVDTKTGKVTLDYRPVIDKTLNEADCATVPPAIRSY
T3 sequence (P21913 31-282): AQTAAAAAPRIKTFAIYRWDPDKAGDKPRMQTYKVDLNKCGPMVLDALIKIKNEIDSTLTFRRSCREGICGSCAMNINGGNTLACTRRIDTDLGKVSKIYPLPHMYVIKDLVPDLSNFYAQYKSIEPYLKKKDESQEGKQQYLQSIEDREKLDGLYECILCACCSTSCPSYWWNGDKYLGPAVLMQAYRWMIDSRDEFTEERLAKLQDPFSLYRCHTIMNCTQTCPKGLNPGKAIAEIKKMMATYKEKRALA
T3 sequence (Q641Z9 30-169 limits assumed): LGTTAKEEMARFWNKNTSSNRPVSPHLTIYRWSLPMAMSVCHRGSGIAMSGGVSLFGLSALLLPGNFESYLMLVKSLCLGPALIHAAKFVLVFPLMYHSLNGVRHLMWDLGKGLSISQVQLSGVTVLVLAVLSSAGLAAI
T3 sequence (Q6PCT8 57-159): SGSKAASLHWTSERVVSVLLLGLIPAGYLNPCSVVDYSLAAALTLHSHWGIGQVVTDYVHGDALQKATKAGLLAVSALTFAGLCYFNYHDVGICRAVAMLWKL
T2 sequence (Q5XIH3 21-464 limits assumed, one chain of several): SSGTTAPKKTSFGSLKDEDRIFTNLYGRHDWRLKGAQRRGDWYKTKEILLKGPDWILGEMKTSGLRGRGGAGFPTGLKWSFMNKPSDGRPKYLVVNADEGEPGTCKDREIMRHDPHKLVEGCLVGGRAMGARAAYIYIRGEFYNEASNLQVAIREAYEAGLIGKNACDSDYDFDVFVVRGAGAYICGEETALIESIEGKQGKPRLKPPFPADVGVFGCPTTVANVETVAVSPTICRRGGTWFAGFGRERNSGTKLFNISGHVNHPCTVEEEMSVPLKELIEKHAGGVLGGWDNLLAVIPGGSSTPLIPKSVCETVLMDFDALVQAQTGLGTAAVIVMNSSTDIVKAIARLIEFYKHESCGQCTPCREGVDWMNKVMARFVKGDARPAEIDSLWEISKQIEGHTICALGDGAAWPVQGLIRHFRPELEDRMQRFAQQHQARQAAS
T5 sequence (Q5XIH3 21-464 limits assumed): as the sequence (Q5XIH3 21-464 limits assumed, one chain of several) above

In the case of `COc1ccc(Cl)cc1N(Cc1ccccc1)Cc1ccccc1` [Compound 34], the IQ in experiment [1] (Table 7), in experiment [1] (Table 8) and in experiment [1] (Table 9) was 4.0 each time. For the same compound, the inhibition at 2.5 µM in experiment [2] (setting [8]) was 49.4%; in experiment [2] (setting [9]), 49.4%; in experiment [2] (setting [11]) it was 49.4%; in experiment [3] (setting [12]), -5.6%; in experiment [4] (Table 7) it was -3.9%. This compound also gave an IIIQO in experiment [2] (setting [10]) of −49.4. Besides, the IF in experiment [3] (setting [10]) and in experiment [3] (setting [13]) was 5.6 throughout. Moreover, the SDH in experiment [4] (Table 8) and in experiment [4] (Table 9) was 3.9 each time. The ΔΨm in experiment [5] (Table 8, glutamate) is 3.4; in experiment [5] (Table 9, glutamate), 3.4. Further, in experiment [6] (Table 7), the inhibition is 4%. Also, the GPDH in experiment [6] (Table 8) and in experiment [6] (Table 9) was −4.0 each time.
`CC1=CC(C)(C)N(Cc2ccc([N+](=O)[O-])cc2)c2ccccc21` [Compound 37]: the IQ in experiment [1] (Table 7), in experiment [1] (Table 8) and in experiment [1] (Table 9) was 0.3 each time. In addition, the inhibition at 2.5 µM in experiment [2] (setting [8]) is 32.1%; in experiment [2] (setting [9]), 32.1%; in experiment [2] (setting [11]) it was 32.1%; in experiment [3] (setting [12]), -0.6%; in experiment [4] (Table 7), -1.2%. The compound further had an IIIQO in experiment [2] (setting [10]) of −32.1. Besides, the IF in experiment [3] (setting [10]) and in experiment [3] (setting [13]) was 0.6 throughout. The SDH in experiment [4] (Table 8) and in experiment [4] (Table 9) was 1.2 each time. The ΔΨm is listed as 1.5 in experiment [5] (Table 8, glutamate) and 1.5 in experiment [5] (Table 9, glutamate). Besides, the inhibition in experiment [6] (Table 7) is 0.6%. Moreover, the GPDH in experiment [6] (Table 8) and in experiment [6] (Table 9) was −0.6 throughout.
As to `COc1cc(CN(CCN(C)C)Cc2ccccc2)cc(OC)c1` [Compound 31], the IQ in experiment [1] (Table 7), in experiment [1] (Table 8) and in experiment [1] (Table 9) was −1.4 throughout. Also, the inhibition at 2.5 µM in experiment [2] (setting [9]) came out at 1.4%; in experiment [2] (setting [11]) it was 1.4%; in experiment [3] (setting [14]), 7.6%; in experiment [3] (setting [12]) it was 7.6%; in experiment [4] (Table 7), 6%. Moreover, the IIIQO in experiment [2] (setting [10]) was −1.4. In addition, the IF in experiment [3] (setting [10]) and in experiment [3] (setting [13]) was −7.6 throughout. Besides, the “effect on IF ROS and selectivity for site IF” value in experiment [7] is on record as “improved selectivity toward the IF site in combination with a lowered effect on ΔΨm”. Further, the SDH in experiment [4] (Table 8) and in experiment [4] (Table 9) was −6.0 throughout. The ΔΨm in experiment [5] (Table 8, glutamate) came to 0.3; in experiment [5] (Table 9, glutamate), 0.3. In experiment [6] (Table 7), the inhibition is -0.5%. The GPDH in experiment [6] (Table 8) and in experiment [6] (Table 9) was 0.5 throughout.
On to `O=C(O)CCC(=O)Nc1ccc(-c2nc3cc4ccccc4cc3[nH]2)cc1` [Compound 61], for which, in experiment [1] (Table 7), the IQ is on record as −17.1. The inhibition at 2.5 µM in experiment [2] (setting [9]) turned out to be 2.4%; in experiment [3] (setting [12]) it was 4.8%; in experiment [4] (Table 7), 4.5%; in experiment [6] it was 48.3%. Further, in experiment [6] (Table 7), the inhibition turned out to be 3.8%.
Turning to `O=[N+]([O-])c1ccc(Oc2ccc(S(=O)(=O)NC3CCCCC3)cc2)cc1` [Compound 4], the “% Reduction in ROS production (IQ)” value in experiment [1] (Table 2, 5 mM succinate, compounds 2.5 μM, percent change from DMSO, positive control −100%) is recorded as −47.9%. Moreover, the IQ in experiment [1] (Table 7), in experiment [1] (Table 8) and in experiment [1] (Table 9) was −47.9 each time. The IIIQO in experiment [2] (setting [15]), in experiment [2] (setting [10]) and in experiment [2] (setting [13]) was −0.3 throughout. For the same compound, the IF in experiment [3] (setting [15]), in experiment [3] (setting [10]) and in experiment [3] (setting [13]) was 3.1 in each case. Further, the SDH in experiment [4] (Table 7), in experiment [4] (Table 8) and in experiment [4] (Table 9) was 0.8 in each case. The ΔΨm in experiment [5] (Table 8, glutamate) is listed as −0.9; in experiment [5] (Table 9, glutamate) it was −0.9. The GPDH in experiment [6] (Table 7), in experiment [6] (Table 8) and in experiment [6] (Table 9) was 2.8 throughout.
Regarding `O=C(O)C1CCCCC1C(=O)NC1CCCCC1` (stereo not drawn) [Compound 19], the IQ in experiment [1] (Table 7), in experiment [1] (Table 8) and in experiment [1] (Table 9) was 0.0 each time. The inhibition at 2.5 µM was -1.2% in experiment [2] (setting [9]); -1.2% in experiment [2] (setting [11]); 25.6% in experiment [3] (setting [14]); 25.6% in experiment [3] (setting [12]); 24% in experiment [7] (2.5 μM). The compound further displayed an IIIQO in experiment [2] (setting [10]) of 1.2. In addition, the IF in experiment [3] (setting [10]) and in experiment [3] (setting [13]) was −25.6 each time. Also, the “effect on IF ROS and selectivity for site IF” value in experiment [7] is on record as “selectively lowers ROS production from site IF”. The ΔΨm in experiment [5] (Table 8, glutamate) is recorded as −1.4; in experiment [5] (Table 9, glutamate), −1.4. The inhibition in experiment [6] (Table 7) stood at 1%. The GPDH in experiment [6] (Table 8) and in experiment [6] (Table 9) was −1.0 in each case.
As for `O=C(O)CSc1cccc(C(=O)Nc2ccc(Br)cc2)c1` [Compound 47], the IQ in experiment [1] (Table 7), in experiment [1] (Table 8) and in experiment [1] (Table 9) was −0.1 in each case. Also, the inhibition at 2.5 µM is 0% in experiment [2] (setting [9]); 0% in experiment [2] (setting [11]); 0.5% in experiment [3] (setting [12]); -1.3% in experiment [4] (Table 7); 14.1% in experiment [6]. This compound displayed an IIIQO in experiment [2] (setting [10]) of 0.0. Besides, the IF in experiment [3] (setting [10]) and in experiment [3] (setting [13]) was −0.5 throughout. Besides, the SDH in experiment [4] (Table 8) and in experiment [4] (Table 9) was 1.3 in each case. Besides, the ΔΨm in experiment [5] (Table 8, glutamate) is 0.0; in experiment [5] (Table 9, glutamate), 0.0. For the same compound, in experiment [6] (Table 7), the inhibition was determined as 14.1%. Moreover, the GPDH in experiment [6] (Table 8) and in experiment [6] (Table 9) was −14.1 in each case.

Values taken from US20140128352A1, “COMPOUNDS AND METHODS FOR MODULATING MITOCHONDRIAL METABOLISM AND REACTIVE OXYGEN SPECIES PRODUCTION” (Buck Institute for Research on Aging, priority 2012, published 2014).
